Source: patent US20200148646A1, “6-S[…] 7-S[…] ANALOGS AND THE USE THEREOF” (Purdue Pharma, L.P., priority 2013, published 2020)

Assays:
[1] = biological target: human κ opioid receptor (Homo sapiens, UniProt P41145); test: κ-opioid receptor [35S]GTPγS functional assay, U-2 OS cells; assay type: biochemical; design: expressed in transfected cells; host or cells: U-2 OS cells (in-house membranes); conditions: for Emax: U2-OS cells, relative to U69,593
Procedure: Membranes from recombinant HEK-293 cells, CHO or U-2 OS cells expressing the recombinant human K opioid receptor (K) were prepared by lysing cells in ice cold hypotonic buffer (2.5 mM MgCl2, 50 mM HEPES, pH 7.4) (10 mL/10 cm dish) followed by homogenization with a tissue grinder/Teflon pestle. Functional [^35S]GTPγS binding assays were conducted as follows. K opioid receptor membrane solution was prepared by sequentially adding final concentrations of 0.026 μg/μl κ membrane protein (in-house), 10 μg/mL saponin, 3 μM GDP and 0.20 nM [^35S]GTPγS to binding buffer (100 mM NaCl, 10 mM MgCl2, 20 mM HEPES, pH 7.4) on ice. The prepared membrane solution (190 μl/well) was transferred to 96-shallow well polypropylene plates containing 10 μl of 20× concentrated stock solutions of agonist prepared in DMSO. Plates were incubated for 30 min at a temperature of about 25° C. with shaking. Reactions were terminated by rapid filtration onto 96-well Unifilter GF/B filter plates (Perkin Elmer, Shelton, Conn.) using a 96-well tissue harvester (Packard) and followed by three filtration washes with 200 μl ice-cold binding buffer (10 mM NaH2PO4, 10 mM Na2HPO4, pH 7.4). Filter plates were subsequently dried at 50° C. for 2-3 hours. Fifty μl/well scintillation cocktail (Perkin Elmer, Shelton, Conn.) was added and plates were counted in a Packard Top-Count for 1 min/well.
κ GTP EC50 is the concentration of a compound providing 50% of the maximal response for the compound at a κ receptor.
κ GTP Emax (%) is the maximal effect elicited by a compound relative to the effect elicited by U69,593.
(§1) In TABLE 2A, activity response of certain Compounds of the Invention at the μ- and κ-opioid receptors using U-2 OS cells was determined as described above for functional assays.

[2] = biological target: μ-opioid receptor (Homo sapiens, UniProt P35372); test: μ-opioid receptor [35S]GTPγS functional assay, U-2 OS cells; assay type: biochemical; design: host or cells: U-2 OS cells; conditions: for Emax: U2-OS cells, relative to DAMGO
Sequence of μ-opioid receptor (P35372 whole entry, species assumed): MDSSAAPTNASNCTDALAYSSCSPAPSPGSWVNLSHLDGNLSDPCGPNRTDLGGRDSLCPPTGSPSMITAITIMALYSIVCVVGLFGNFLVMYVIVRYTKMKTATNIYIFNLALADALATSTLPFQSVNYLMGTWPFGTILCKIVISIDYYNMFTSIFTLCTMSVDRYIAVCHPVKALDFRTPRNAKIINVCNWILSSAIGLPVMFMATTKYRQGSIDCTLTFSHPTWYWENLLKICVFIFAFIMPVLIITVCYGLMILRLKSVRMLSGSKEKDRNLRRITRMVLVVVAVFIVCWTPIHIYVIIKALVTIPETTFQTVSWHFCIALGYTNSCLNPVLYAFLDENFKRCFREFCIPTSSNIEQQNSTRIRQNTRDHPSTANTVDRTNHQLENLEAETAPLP
Procedure: [^35S]GTPγS functional assays were conducted using freshly thawed μ-receptor membranes prepared in-house from a cell line expressing recombinant opioid receptor in a HEK-293, CHO or U-2 OS cell background, or purchased from a commercial source (Perkin Elmer, Shelton, Conn.; or DiscovRx, Fremont, Calif.). Assay reactions were prepared by sequentially adding the following reagents to binding buffer (100 mM NaCl, 10 mM MgCl2, 20 mM HEPES, pH 7.4) on ice (final concentrations indicated): membrane protein (0.026 mg/mL), saponin ([…]), GDP ([…]) and [^35S]GTPγS (0.20 nM; Perkin Elmer, Shelton, Conn.). The prepared membrane solution (190 l/well) was transferred to 96-shallow well polypropylene plates containing 10 μl of 20× concentrated stock solutions of the agonist [D-Ala^2, N-methyl-Phe^4 Gly-ol^5]-enkephalin (DAMGO) prepared in dimethyl sulfoxide (DMSO). Plates were incubated for 30 min at about 25° C. with shaking. Reactions were terminated by rapid filtration onto 96-well Unifilter GF/B filter plates (Perkin Elmer, Shelton, Conn.) using a 96-well tissue harvester (Perkin Elmer, Shelton, Conn.) followed by three filtration washes with 200 μl of ice-cold wash buffer (10 mM NaH2PO4, 10 mM Na2HPO4, pH 7.4). Filter plates were subsequently dried at 50° C. for 2-3 hr. BetaScint scintillation cocktail (Perkin Elmer, Shelton, Conn.) was added (50 μl/well) and plates were counted using a Packard Top-Count for 1 min/well. Data were analyzed using the sigmoidal dose-response curve fitting functions in GraphPad PRISM v. 3.0, or an in-house function for non-linear, sigmoidal dose-response curve-fitting.
μ GTP EC50 is the concentration of a compound providing 50% of the maximal response for the compound at a μ-opioid receptor.
μ GTP Emax (%) is the maximal effect elicited by a compound relative to the effect elicited by DAMGO, a standard agonist. Generally, the μ GTP Emax (%) value measures the efficacy of a compound to treat or prevent pain or other Conditions.
as §1

Sequence of human κ opioid receptor (P41145 whole entry): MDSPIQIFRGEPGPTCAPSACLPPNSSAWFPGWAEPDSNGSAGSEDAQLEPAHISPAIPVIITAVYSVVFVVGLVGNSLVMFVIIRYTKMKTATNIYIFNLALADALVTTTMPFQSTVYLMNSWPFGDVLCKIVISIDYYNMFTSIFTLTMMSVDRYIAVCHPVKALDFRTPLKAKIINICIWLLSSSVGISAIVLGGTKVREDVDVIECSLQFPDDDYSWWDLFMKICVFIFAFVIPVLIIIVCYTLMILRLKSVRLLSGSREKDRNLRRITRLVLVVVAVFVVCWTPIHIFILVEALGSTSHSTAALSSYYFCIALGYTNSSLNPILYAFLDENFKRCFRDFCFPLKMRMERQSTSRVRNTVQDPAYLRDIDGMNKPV

N=C(N)NCCN[C@H]1CC[C@]23CCN(CC4CC4)[C@H](Cc4ccc(O)cc42)[C@]3(O)C1 [Compound 32, 1-(2-(((4bS,7S,8aS,9R)-11-(cyclopropylmethyl)-3,8a-dihydroxy-6,7,8,8a,9,10-hexahydro-5H-9,4b-(epiminoethano)phenanthren-7-yl)amino)ethyl)guanidine]
EC50 [1]: > 20000 nM | Emax [1]: -1% | EC50 [2]: > 20000 nM | Emax [2]: 5.33 ± 1.45%

CC(C)C[C@H]1C[C@@]2(O)[C@H]3Cc4ccc(O)cc4[C@@]2(CCN3CC2CC2)C[C@H]1O [Compound 67, (4bR,6R,7S,8aS,9R)-11-(cyclopropylmethyl)-7-isobutyl-5,6,7,8,9,10-hexahydro-8aH-9,4b-(epiminoethano)phenanthrene-3,6,8a-triol]
EC50 [1]: 55.5 ± 8.5 nM | Emax [1]: 89.3 ± 1.67% | EC50 [2]: > 20000 nM | Emax [2]: 2%

COc1ccc2c(c1)[C@]13CCN(CC4CC4)[C@H](C2)[C@]1(O)C[C@H](NC(=O)C(C)C)C(O)C3 (stereo partly drawn) [Compound 49, N-((4bR,7S,8aS,9R)-11-(cyclopropylmethyl)-6,8a-dihydroxy-3-methoxy-6,7,8,8a,9,10-hexahydro-5H-9,4b-(epiminoethano)phenanthren-7-yl)isobutyramide]
EC50 [1]: 7940 nM | Emax [1]: 90.3 ± 1.67% | EC50 [2]: 8460 nM | Emax [2]: 27 ± 1.53%

CCC(C)C[C@H]1C[C@@]2(O)[C@H]3Cc4ccc(O)cc4[C@@]2(CCN3CC2CC2)C[C@H]1O (stereo partly drawn) [Compound 53, (4bR,6R,7S,8aS,9R)-11-(cyclopropylmethyl)-7-(2-methylbutyl)-5,6,7,8,9,10-hexahydro-8aH-9,4b-(epiminoethano)phenanthrene-3,6,8a-triol]
EC50 [1]: 73.8 ± 11.8 nM | Emax [1]: 62 ± 1.53% | EC50 [2]: > 20000 nM | Emax [2]: 3%

CC(=O)N[C@H]1CC[C@]23CCN(CC4CC4)[C@H](Cc4ccc(O)cc42)[C@]3(O)C1 [Compound 47, N-((4bS,7S,8aS,9R)-11-(cyclopropylmethyl)-3,8a-dihydroxy-6,7,8,8a,9,10-hexahydro-5H-9,4b-(epiminoethano)phenanthren-7-yl)acetamide]
EC50 [1]: 0.14 ± 0.027 nM | Emax [1]: 105 ± 1.76% | EC50 [2]: 0.61 ± 0.17 nM | Emax [2]: 44 ± 1.73%

CC(C)CCC(=O)N[C@H]1C[C@@]2(O)[C@H]3Cc4ccc(O)cc4[C@@]2(CCN3CC2CC2)C[C@H]1O [Compound 61, N-((4bR,6R,7S,8aS,9R)-11-(cyclopropylmethyl)-3,6,8a-trihydroxy-6,7,8,8a,9,10-hexahydro-5H-9,4b-(epiminoethano)phenanthren-7-yl)-4-methylpentanamide]
EC50 [1]: 15.4 ± 2.43 nM | Emax [1]: 97.7 ± 2.19% | EC50 [2]: 61.6 ± 5.41 nM | Emax [2]: 26.7 ± 0.88%

CC(C)C(=O)N[C@H]1C[C@@]2(O)[C@H]3Cc4ccc(O)cc4[C@@]2(CCN3CC2CC2)C[C@H]1O [Compound 58, N-((4bR,6R,7S,8aS,9R)-11-(cyclopropylmethyl)-3,6,8a-trihydroxy-6,7,8,8a,9,10-hexahydro-5H-9,4b-(epiminoethano)phenanthren-7-yl)isobutyramide]
EC50 [1]: 38.1 ± 2.2 nM | Emax [1]: 101 ± 1.2% | EC50 [2]: 80.9 ± 15.1 nM | Emax [2]: 19.3 ± 1.45%

Oc1ccc2c(c1)[C@]13CCN(CC4CC4)[C@H](C2)[C@]1(O)C[C@@H](N1CCCC1)[C@@H](O)C3 [Compound 38, (4bR,6S,7R,8aS,9R)-11-(cyclopropylmethyl)-7-(pyrrolidin-1-yl)-5,6,7,8,9,10-hexahydro-8aH-9,4b-(epiminoethano)phenanthrene-3,6,8a-triol]
EC50 [1]: 0.33 ± 0.022 nM | Emax [1]: 80 ± 3.79% | EC50 [2]: 1.27 ± 0.19 nM | Emax [2]: 23.3 ± 1.86%

COc1ccc2c(c1)[C@]13CCN(CC4CC4)[C@H](C2)[C@]1(O)C[C@@H](NCC(C)C)[C@@H](O)C3 [Compound 33, (4bR,6S,7R,8aS,9R)-11-(cyclopropylmethyl)-7-(isobutylamino)-3-methoxy-5,6,7,8,9,10-hexahydro-8aH-9,4b-(epiminoethano)phenanthrene-6,8a-diol]
EC50 [1]: 328 ± 22.1 nM | Emax [1]: 93.7 ± 1.76% | EC50 [2]: 503 ± 43.5 nM | Emax [2]: 43 ± 3.79%

Oc1ccc2c(c1)[C@]13CCN(CC4CC4)[C@H](C2)[C@]1(O)C[C@@H](N1CCOCC1)[C@@H](O)C3 [Compound 39, (4bR,6S,7R,8aS,9R)-11-(cyclopropylmethyl)-7-morpholino-5,6,7,8,9,10-hexahydro-8aH-9,4b-(epiminoethano)phenanthrene-3,6,8a-triol]
EC50 [1]: > 20000 nM | Emax [1]: 1% | EC50 [2]: > 20000 nM | Emax [2]: 2%

O=C(N[C@H]1C[C@@]2(O)[C@H]3Cc4ccc(O)cc4[C@@]2(CCN3CC2CC2)C[C@H]1O)c1ccccc1 [Compound 66, N-((4bR,6R,7S,8aS,9R)-11-(cyclopropylmethyl)-3,6,8a-trihydroxy-6,7,8,8a,9,10-hexahydro-5H-9,4b-(epiminoethano)phenanthren-7-yl)benzamide]
EC50 [1]: 39.2 ± 4.27 nM | Emax [1]: 71.7 ± 1.2% | EC50 [2]: 114 ± 14.5 nM | Emax [2]: 15 ± 0.58%

COc1ccc2c(c1)[C@@]13CCC(=O)C[C@@]1(O)[C@@H](C2)N(CC1CC1)CC3 [Compound 31, (4bS,8aS,9R)-11-(cyclopropylmethyl)-8a-hydroxy-3-methoxy-5,6,8,8a,9,10-hexahydro-7H-9,4b-(epiminoethano)phenanthren-7-one]
EC50 [1]: 633 ± 87.1 nM | Emax [1]: 108 ± 3.76% | EC50 [2]: 740 ± 49.5 nM | Emax [2]: 57.3 ± 2.73%

CC(C)CC(=O)N[C@H]1C[C@@]2(O)[C@H]3Cc4ccc(O)cc4[C@@]2(CCN3CC2CC2)C[C@H]1O [Compound 60, N-((4bR,6R,7S,8aS,9R)-11-(cyclopropylmethyl)-3,6,8a-trihydroxy-6,7,8,8a,9,10-hexahydro-5H-9,4b-(epiminoethano)phenanthren-7-yl)-3-methylbutanamide]
EC50 [1]: 31.4 ± 3.7 nM | Emax [1]: 106 ± 6.06% | EC50 [2]: 54.7 ± 8.1 nM | Emax [2]: 25.3 ± 0.33%

CC[C@H](C)C(=O)N[C@H]1C[C@@]2(O)[C@H]3Cc4ccc(O)cc4[C@@]2(CCN3CC2CC2)C[C@H]1O [Compound 59, (S)—N-((4bR,6R,7S,8aS,9R)-11-(cyclopropylmethyl)-3,6,8a-trihydroxy-6,7,8,8a,9,10-hexahydro-5H-9,4b-(epiminoethano)phenanthren-7-yl)-2-methylbutanamide]
EC50 [1]: 35.6 ± 4.27 nM | Emax [1]: 98.3 ± 3.18% | EC50 [2]: 45 ± 8.96 nM | Emax [2]: 22.3 ± 1.45%

O=C(N[C@H]1C[C@@]2(O)[C@H]3Cc4ccc(O)cc4[C@@]2(CCN3CC2CC2)C[C@H]1O)C1CC1 [Compound 64, N-((4bR,6R,7S,8aS,9R)-11-(cyclopropylmethyl)-3,6,8a-trihydroxy-6,7,8,8a,9,10-hexahydro-5H-9,4b-(epiminoethano)phenanthren-7-yl)cyclopropanecarboxamide]
EC50 [1]: 48.3 ± 3.1 nM | Emax [1]: 93.7 ± 2.33% | EC50 [2]: 112 ± 19.3 nM | Emax [2]: 7.33 ± 0.33%

Oc1ccc2c(c1)[C@]13CCN(CC4CC4)[C@H](C2)[C@]1(O)C[C@@H](NCc1ccccc1)[C@@H](O)C3 [Compound 36, (4bR,6S,7R,8aS,9R)-7-(benzylamino)-11-(cyclopropylmethyl)-5,6,7,8,9,10-hexahydro-8aH-9,4b-(epiminoethano)phenanthrene-3,6,8a-triol]
EC50 [1]: 0.34 ± 0.033 nM | Emax [1]: 62 ± 3.06% | EC50 [2]: 2.36 ± 0.64 nM | Emax [2]: 24.3 ± 0.88%
